Where two headings read alike, the source gives them in different places.
Assays:
HCT116 MTAP null cells = assay: HCT116 MTAP null cell line proliferation (CellTiter-Glo cell viability, 6 days); type: cell-based; conditions: HCT116 MTAP null cells, 6 days of treatment, CellTiter-Glo cell viability, read-out: HCT-116 MTAP null IC50
How it was run: (§1)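 Isogenic HCT116 pair (both MTAP alleles knocked out vs parent) in RPMI 1640 + 10% FBS, seeded overnight at 37° C, 5% CO2, then exposed 6 days to 8- or 9-point 1:3 dilutions from 1 or 10 μM. CellTiter-Glo luminescence; IC50 from sigmoidal fit, Hill slope fixed −1, top 100%, or 4-parameter logistic.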

HCT116 WT cells = assay: HCT116 WT cell line proliferation (CellTiter-Glo cell viability, 6 days); type: cell-based; conditions: HCT116 WT (parent) cells, 6 days of treatment, CellTiter-Glo cell viability, read-out: HCT-116 WT IC50
How it was run: as §1

Compound | IC50 (HCT116 MTAP null cells; HCT116-MTAP null, 144 h) | IC50 (HCT116 WT cells; Homo sapiens, HCT-116, 144 h) | IC50 (HCT116 MTAP null cells) | IC50 (HCT116 WT cells)
Nc1nc2ccc(C(=O)N3CCOCC3c3ccc(C(F)(F)F)nc3)cc2c2c1COC2 (racemic) [Example 513, (4-amino-1,3-dihydrofuro[3,4-c]quinolin-8-yl)-[rac-(3S)-3-[6-(trifluoromethyl)-3-pyridyl]morpholin-4-yl]methanone] | 380 nM | > 10000 nM |  | 
Cn1ncc2c(N)nc3cc(F)c(C(=O)N4CCC(c5ccc(C(F)(F)F)cn5)C4)cc3c21 (racemic) [Example 541, (4-amino-7-fluoro-1-methyl-1H-pyrazolo[4,3-c]quinolin-8-yl)((3R)-3-(5-(trifluoromethyl)-2-pyridinyl)-1-pyrrolidinyl)methanone and (4-amino-7-fluoro-1-methyl-1H-pyrazolo[4,3-c]quinolin-8-yl)((3S)-3-(5-(trifluoromethyl)-2-pyridinyl)-1-pyrrolidinyl)methanone] | 56 nM | 5330 nM |  | 
Nc1nc2cc(Cl)c(C(=O)N3CCC(c4ccc(C(F)(F)F)cn4)C3)cc2c2c1COC2 (racemic) [Example 542, (4-amino-7-chloro-1,3-dihydrofuro[3,4-c]quinolin-8-yl)((3R)-3-(5-(trifluoromethyl)-2-pyridinyl)-1-pyrrolidinyl)methanone and (4-amino-7-chloro-1,3-dihydrofuro[3,4-c]quinolin-8-yl)((3S)-3-(5-(trifluoromethyl)-2-pyridinyl)-1-pyrrolidinyl)methanone] | 235 nM | 12500 nM |  | 
Cn1ncc2c(N)nc3cc(Cl)c(C(=O)N4CCC(c5ccc(C(F)(F)F)cn5)C4)cc3c21 (racemic) [Example 543, (4-amino-7-chloro-1-methyl-1H-pyrazolo[4,3-c]quinolin-8-yl)((3R)-3-(5-(trifluoromethyl)-2-pyridinyl)-1-pyrrolidinyl)methanone and (4-amino-7-chloro-1-methyl-1H-pyrazolo[4,3-c]quinolin-8-yl)((3S)-3-(5-(trifluoromethyl)-2-pyridinyl)-1-pyrrolidinyl)methanone] | 18 nM | 1860 nM |  | 
COc1ccc([C@H]2COC[C@@H](C)N2C(=O)c2cc3c4c(c(N)nc3cn2)COC4)nn1 (relative stereo) [Example 491, (4-amino-1,3-dihydrofuro[3,4-c][1,7]naphthyridin-8-yl)((3S,5R)-3-(6-methoxypyridazin-3-yl)-5-methylmorpholino)methanone] | 108 nM | 4380 nM |  | 
C[C@H]1OCc2c1c(N)nc1cnc(C(=O)N3CCOC[C@@H]3c3ccc(C(F)(F)F)cc3)cc21 (single isomer, unassigned) [Example 452] | 49 nM | 3460 nM |  | 
C[C@@H]1OCc2c1c(N)nc1cnc(C(=O)N3CCOC[C@@H]3c3ccc(C(F)(F)F)cc3)cc21 (single isomer, unassigned) [Example 453] | 2180 nM | 40300 nM |  | 
C[C@H]1OCc2c1c(N)nc1cnc(C(=O)N3CCOC[C@@H]3c3ccc(C(F)(F)C(F)(F)F)cc3)cc21 (single isomer, unassigned) [Example 454] | 24 nM | 778 nM |  | 
Nc1nc2ccc(C(=O)N3CCOC[C@H]3c3ccc(C(F)(F)F)cc3)cc2c2c1COC2 (single isomer, unassigned) [Example 455] | > 1000 nM | > 10000 nM |  | 
Nc1nc2ccc(C(=O)N3CCOC[C@@H]3c3ccc(C(F)(F)F)cc3)cc2c2c1COC2 (single isomer, unassigned) [Example 456] | 102 nM | 4360 nM |  | 
Nc1nc2cnc(C(=O)N3CCOC[C@H]3c3ccc(S(F)(F)(F)(F)F)cc3)cc2c2c1COC2 (single isomer, unassigned) [Example 457] | 8710 nM | 18600 nM |  | 
Nc1nc2cnc(C(=O)N3CCOC[C@@H]3c3ccc(S(F)(F)(F)(F)F)cc3)cc2c2c1COC2 (single isomer, unassigned) [Example 458] | 18 nM | 454 nM |  | 
Nc1nc2cnc(C(=O)N3CCOC[C@@H]3c3ncc(Br)cc3F)cc2c2c1COC2 (single isomer, unassigned) [Example 459] | 72 nM | 6140 nM |  | 
Nc1nc2cc(F)c(C(=O)N3CCOC[C@@H]3c3ncc(Br)cc3F)cc2c2c1COC2 (single isomer, unassigned) [Example 460] | 30 nM | 1810 nM |  | 
CC[C@@H]1CN(C(=O)c2ccc3nc(N)c4c(c3c2)CO[C@@H]4C)C[C@H]1c1ccc(C)cc1 (single isomer, unassigned) [Example 461] | 864 nM | 14600 nM |  | 
C[C@H]1OCc2c1c(N)nc1ccc(C(=O)N3C[C@@H](c4ccc(F)cc4)C(C)(C)C3)cc21 (single isomer, unassigned) [Example 462] | 595 nM | 14100 nM |  | 
C[C@H]1OCc2c1c(N)nc1ccc(C(=O)N3C[C@H](c4ccc(F)cc4)C(C)(C)C3)cc21 (single isomer, unassigned) [Example 463] | 122 nM | 6550 nM |  | 
Cc1ccc([C@@H]2CN(C(=O)c3cc4c5c(c(N)nc4cc3F)COC5)CC2(C)C)cc1 (single isomer, unassigned) [Example 464] | 195 nM | 5470 nM |  | 
CC1(C)CN(C(=O)c2cc3c4c(c(N)nc3cc2F)COC4)C[C@H]1c1ccc(F)cc1 (single isomer, unassigned) [Example 465] | 71 nM | 3510 nM |  | 
C[C@H]1OCc2c1c(N)nc1ccc(C(=O)N3C[C@@H](O)[C@H](c4ccc(Cl)cc4)C3)cc21 (single isomer, unassigned) [Example 466] | 189 nM | 16600 nM |  | 

Compound | IC50 (HCT116 MTAP null cells; HCT116-MTAP null, 144 h) | IC50 (HCT116 WT cells; Homo sapiens, HCT-116, 144 h) | IC50 (HCT116 MTAP null cells) | IC50 (HCT116 WT cells)
C[C@H]1OCc2c1c(N)nc1ccc(C(=O)N3C[C@H](c4ccc(Cl)cc4)[C@@H](O)C3)cc21 (single isomer, unassigned) [Example 467] | 982 nM | 31200 nM |  | 
Nc1nc2cc(F)c(C(=O)N3CC[C@H](c4ccc(C(F)(F)F)cc4)C3)cc2c2c1COC2 (single isomer, unassigned) [Example 468] | 417 nM | 37400 nM |  | 
Cn1ncc2c(N)nc3cc(F)c(C(=O)N4CC[C@@H](Cc5ccc(C(F)(F)F)cc5)C4)cc3c21 (single isomer, unassigned) [Example 469] | 243 nM | 4950 nM |  | 
Cn1ncc2c(N)nc3cc(F)c(C(=O)N4CC[C@H](Cc5ccc(C(F)(F)F)cc5)C4)cc3c21 (single isomer, unassigned) [Example 470] | 340 nM | 5300 nM |  | 
Cn1ncc2c(N)nc3cc(F)c(C(=O)N4CC[C@@H](Oc5ccc(C(F)(F)F)cc5)C4)cc3c21 (single isomer, unassigned) [Example 471] | 283 nM | 6010 nM |  | 
Cn1ncc2c(N)nc3cc(F)c(C(=O)N4CC[C@H](Oc5ccc(C(F)(F)F)cc5)C4)cc3c21 (single isomer, unassigned) [Example 472] | 190 nM | 4470 nM |  | 
CC1(C)CN(C(=O)c2cc3c4c(c(N)nc3cc2F)COC4)C[C@@H]1c1ccc(C(F)(F)F)cc1 (single isomer, unassigned) [Example 473] | 17 nM | 556 nM |  | 
Cn1ncc2c(N)nc3cc(F)c(C(=O)N4CC[C@@H](Oc5ccc(C(F)(F)F)cn5)C4)cc3c21 (single isomer, unassigned) [Example 474] |  | 6420 nM | 842 nM | 
Cn1ncc2c(N)nc3cc(F)c(C(=O)N4CC[C@@H](Oc5ccc(C(F)(F)F)cn5)C4)cc3c21 (single isomer, unassigned) [Example 475] |  |  | 175 nM | 9490 nM
Nc1nc2cc(Cl)c(C(=O)N3C[C@@H](c4ccc(F)cc4)[C@H](c4cc[nH]n4)C3)cc2c2c1COC2 (single isomer, unassigned) [Example 476] | 68 nM | 1560 nM |  | 
Nc1nc2cc(Cl)c(C(=O)N3CC[C@@](O)(c4ccc(C(F)(F)F)cc4)C3)cc2c2c1COC2 (single isomer, unassigned) [Example 477] | 547 nM | > 50000 nM |  | 
CC1(C)CN(C(=O)c2cc3c4c(c(N)nc3cc2F)COC4)C[C@H]1c1ccc(Br)cc1 (single isomer, unassigned) [Example 478] | 31 nM | 1950 nM |  | 
COC(=O)[C@H]1CN(C(=O)c2cc3c4c(c(N)nc3cc2F)COC4)C[C@@H]1c1ccc(C(F)(F)F)cc1 (single isomer, unassigned) [Example 479] | 577 nM | 18900 nM |  | 
COC(=O)[C@@H]1CN(C(=O)c2cc3c4c(c(N)nc3cc2F)COC4)C[C@H]1c1ccc(C(F)(F)F)cc1 (single isomer, unassigned) [Example 480] | 92 nM | 1750 nM |  | 
Nc1nc2cnc(C(=O)N3CCOC[C@@H]3c3ccc(C(F)(F)F)cc3)cc2c2c1COC2 (single isomer, unassigned) [Example 481] | 107 nM | 4330 nM |  | 
Nc1nc2cnc(C(=O)N3CCOC[C@H]3c3ccc(C(F)(F)F)cc3)cc2c2c1COC2 (single isomer, unassigned) [Example 482] | > 1000 nM | > 10000 nM |  | 
Nc1nc2cnc(C(=O)N3CCCC[C@@H]3c3ccc(C(F)(F)F)cc3)cc2c2c1COC2 (single isomer, unassigned) [Example 485] | 40 nM | 1740 nM |  | 
Nc1nc2cnc(C(=O)N3CCCC[C@H]3c3ccc(C(F)(F)F)cc3)cc2c2c1COC2 (single isomer, unassigned) [Example 486] | > 1000 nM | > 10000 nM |  | 
Nc1nc2ccc(C(=O)N3CCOC[C@H]3c3ccc(C(F)(F)F)cc3)cc2c2ccsc12 (single isomer, unassigned) [Example 487] | > 1000 nM | > 10000 nM |  | 

— patent US11845760B2, “PRMT5 inhibitors” (AMGEN INC., priority 2020, dated 2023)
